*1 amine or outer side, *2 acyl side, *3 side chain or, on linkers, in order; H or OH if unused. Where a SMILES comes first, the peptide text is derived from it. Where no end group is shown, it is not given here. [ ]: non-standard residue; d: D form. The star is where a group is joined. X8 = N=C(N)NCCC[C@@H](C(=O)[*:2])N(CC1CCN([*:3])CC1)[*:1]; Acetyl(1-adamantyl) = O=C(CC12CC3CC(CC(C3)C1)C2)*; Butyryl(4-indol-3-yl) = O=C(CCCc1c[nH]c2ccccc12)*; Propanoyl(3,3-Ph2) = O=C(CC(c1ccccc1)c1ccccc1)*; Acetyl(1-naphthyloxy) = O=C(COc1cccc2ccccc12)*; Acetyl(2-naphthyloxy) = O=C(COc1ccc2ccccc2c1)*; Acetyl(2-naphthyl) = O=C(Cc1ccc2ccccc2c1)*; 2Naphthoyl = O=C(c1ccc2ccccc2c1)*; X1 = O=C(Cc1ccc(N[*:1])cc1)[*:2]; 4Abz = Nc1ccc(C(=O)O)cc1; Orn = NCCC[C@H](N)C(=O)O; X9 = O=C(C(Cl)c1ccccc1)*; Inp = O=C(O)C1CCNCC1; Ava = NCCCCC(=O)O; GABA = NCCCC(=O)O; BrAc = O=C(CBr)*; NHiBu = CC(C)CN*

Here are results for 21 molecules from patent US5047397A, “Linear analogs of atrial natriuretic peptides” (California Biotechnology Inc., priority 1988, dated 1991).

For the test, the target named is T1, specific ANP receptor sites on BASM or BAE cells (Bos taurus, UniProt P10730).
T1 construct: specific receptor sites on BASM or BAE cells; endogenous in cells; host or cells: cultured BASM and BAE cells
T1 sequence (P10730 42-537): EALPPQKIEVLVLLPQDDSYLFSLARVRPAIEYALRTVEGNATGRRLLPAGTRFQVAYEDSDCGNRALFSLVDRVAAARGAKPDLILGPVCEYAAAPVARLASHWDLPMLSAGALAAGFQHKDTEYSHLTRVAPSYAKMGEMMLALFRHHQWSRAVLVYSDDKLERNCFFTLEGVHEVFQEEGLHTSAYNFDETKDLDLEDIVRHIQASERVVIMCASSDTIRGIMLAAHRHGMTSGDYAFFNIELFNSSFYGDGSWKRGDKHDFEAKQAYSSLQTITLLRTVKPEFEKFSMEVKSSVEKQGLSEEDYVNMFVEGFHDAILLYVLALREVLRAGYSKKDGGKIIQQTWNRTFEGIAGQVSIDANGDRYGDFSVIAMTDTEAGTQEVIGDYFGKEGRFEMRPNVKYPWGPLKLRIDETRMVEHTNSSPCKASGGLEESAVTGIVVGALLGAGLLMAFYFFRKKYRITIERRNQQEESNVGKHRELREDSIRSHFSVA
Nature of the test: Competitive displacement receptor binding of (125I)-rANP(126-150) on cultured cells. The arrangement: species or system bovine. As to conditions: concentration of unlabeled peptide displacing 50% of maximal binding of 0.5 nM (125I)-rANP(126-150); BASM or BAE cells. The source says:
Analogous "competitive displacement" receptor binding assays are considered commonplace in the art for examining specific ligand-receptor interactions.
Assuming these ANP analogs act at one or more ANP receptor sites, then increased receptor affinity should reflect increased biological potency.
As to `CC[C@H](C)[C@H](NC(=O)[C@H](CCCNC(=N)N)NC(=O)[C@H](CC(=O)O)NC(=O)[C@@H](NC(=O)[C@H](CCCNC(=N)N)NC(=O)CNC(=O)CNC(=O)Cc1ccc2ccccc2c1)[C@@H](C)CC)C(=O)NCCCCC(N)=O` [AP526, (2-NA)--G--G--R--I--D--R--I--NH--(CH2)4 --CONH2] ({Acetyl(2-naphthyl)}-GGRIDRI[Ava]-NH2), the “Ki(app)” value stood at 50.5 nM. Regarding `CC[C@H](C)[C@H](NC(=O)[C@H](CCCNC(=N)N)NC(=O)[C@H](CC(=O)O)NC(=O)[C@@H](NC(=O)[C@H](CCCNC(=N)N)NC(=O)CNC(=O)CNC(=O)CC12CC3CC(CC(C3)C1)C2)[C@@H](C)CC)C(N)=O` [AP309, (1-AA)--G--G--R--I--D--R--I--NH2] ({Acetyl(1-adamantyl)}-GGRIDRI-NH2), the “Ki(app)” value came out at 30.0 nM.

Consider “FGGRIDRIGA-NH2 [AP126, F--G--G--R--I--D--R--I--G--A--NH2]”, for which the “Ki(app)” value came to 2.16 nM. `CC[C@H](C)[C@H](NC(=O)[C@H](CCCNC(=N)N)NC(=O)[C@H](CC(=O)O)NC(=O)[C@@H](NC(=O)[C@H](CCCCN)NC(=O)Cc1ccc(NC(=O)c2ccc3ccccc3c2)cc1)[C@@H](C)CC)C(N)=O` [AP802] (2Naphthoyl-[X1]KIDRI-NH2): the “Ki(app)” value is recorded as 8.7 nM. Take `CC[C@H](C)[C@H](NC(=O)[C@H](CCCNC(=N)N)NC(=O)[C@H](CC(=O)O)NC(=O)[C@@H](NC(=O)[C@H](CCCNC(=N)N)NCC1CCN(C(=O)Cc2ccc3ccccc3c2)CC1)[C@@H](C)CC)C(N)=O` [AP704] (H-[X8](Acetyl(2-naphthyl))IDRI-NH2): the “Ki(app)” value came to 17.0 nM. As to `CC[C@H](C)[C@H](NC(=O)[C@H](CCCNC(=N)N)NC(=O)[C@H](CC(=O)O)NC(=O)[C@@H](NC(=O)[C@H](CCCNC(=N)N)NC(=O)CNC(=O)CNC(=O)CC(c1ccccc1)c1ccccc1)[C@@H](C)CC)C(=O)NCC(=O)N[C@@H](C)C(N)=O` [AP331, (3-DPP)--G--G--R--I--D--R--I--G--A--NH2] ({Propanoyl(3,3-Ph2)}-GGRIDRIGA-NH2), the “Ki(app)” value amounted to 6.15 nM.

With `CC[C@H](C)[C@H](NC(=O)[C@H](CCCN)NC(=O)[C@H](CC(=O)O)NC(=O)[C@@H](NC(=O)[C@H](CCCNC(=N)N)NC(=O)CNC(=O)CNC(=O)Cc1ccc2ccccc2c1)[C@@H](C)CC)C(N)=O` [AP592, (2-NA)--G--G--R--I--D--Orn--I--NH2] ({Acetyl(2-naphthyl)}-GGRID[Orn]I-NH2), the “Ki(app)” value is reported as 25.0 nM. Under `CC[C@H](C)[C@H](NC(=O)[C@H](CCCNC(=N)N)NC(=O)CNC(=O)CNC(=O)[C@H](Cc1ccccc1)NC(=O)[C@H](C)N)C(=O)N[C@@H](CC(=O)O)C(=O)N[C@H](CCCNC(=N)N)C(=O)N[C@H](C(=O)NCC(=O)N[C@@H](C)C(N)=O)[C@@H](C)CC` [AP304, A--F--G--G--R--I--D--R^ --I--G--A--NH2] (H-AFGGRID[dR]IGA-NH2) stands 95.6 nM; under `CC[C@H](C)[C@H](NC(=O)[C@H](CCCNC(=N)N)NC(=O)[C@H](CC(=O)O)NC(=O)[C@@H](NC(=O)[C@H](CCCNC(=N)N)NC(=O)c1ccc(NC(=O)Cc2ccc3ccccc3c2)cc1)[C@@H](C)CC)C(N)=O` [AP560] ({Acetyl(2-naphthyl)-4Abz}-RIDRI-NH2), 68.8 nM. Regarding `CC[C@H](C)[C@H](NC(=O)[C@H](CCCNC(=N)N)NC(=O)[C@H](CC(=O)O)NC(=O)[C@@H](NC(=O)[C@H](CCCNC(=N)N)NC(=O)Cc1ccc(NC(=O)[C@H](Cc2ccccc2)NC(=O)CBr)cc1)[C@@H](C)CC)C(N)=O` [AP819] (BrAc-F[X1]RIDRI-NH2), the “Ki(app)” value was found to be 3.8 nM. Then `CC[C@H](C)[C@H](NC(=O)[C@H](CCCNC(=N)N)NC(=O)[C@H](CC(=O)O)NC(=O)[C@@H](NC(=O)[C@H](CCCNC(=N)N)NC(=O)C1CCN(C(=O)COc2ccc3ccccc3c2)CC1)[C@@H](C)CC)C(N)=O` [AP793] ({Acetyl(2-naphthyloxy)-Inp}-RIDRI-NH2), with 76.8 nM; and `CC[C@H](C)[C@H](NC(=O)[C@H](CCCNC(=N)N)NC(=O)[C@H](CC(=O)O)NC(=O)[C@@H](NC(=O)[C@H](CCCNC(=N)N)NC(=O)CCCCNC(=O)Cc1ccc2ccccc2c1)[C@@H](C)CC)C(N)=O` [AP324, (2-NA)--NH(CH2)4 CO--R--I--D--R--I--NH2] ({Acetyl(2-naphthyl)-Ava}-RIDRI-NH2), with 48.5 nM. Under `CC[C@H](C)[C@H](NC(=O)[C@H](CCCNC(=N)N)NC(=O)[C@H](CC(=O)O)NC(=O)[C@@H](NC(=O)[C@H](CCCNC(=N)N)NC(=O)CNC(=O)CCCc1c[nH]c2ccccc12)[C@@H](C)CC)C(=O)NCC(=O)N[C@@H](C)C(N)=O` [AP531, (3-IB)--G--R--I--D--R--I--G--A--NH2)] ({Butyryl(4-indol-3-yl)}-GRIDRIGA-NH2) stands 9.34 nM. For the molecule `CC[C@H](C)[C@H](NC(=O)[C@H](CCCNC(=N)N)NC(=O)[C@H](CC(=O)O)NC(=O)[C@@H](NC(=O)[C@H](CCCNC(=N)N)NC(=O)CNC(=O)CNC(=O)COc1cccc2ccccc12)[C@@H](C)CC)C(N)=O` [AP316, (1-NOA)--G--G--R--I--D--R--I--NH2] ({Acetyl(1-naphthyloxy)}-GGRIDRI-NH2), the “Ki(app)” value was 50.4 nM. Then `CC[C@@H](C)[C@@H](NC(=O)[C@H](CCCNC(=N)N)NC(=O)CNC(=O)CNC(=O)[C@H](Cc1ccccc1)NC(=O)[C@H](C)N)C(=O)N[C@@H](CC(=O)O)C(=O)N[C@@H](CCCNC(=N)N)C(=O)N[C@H](C(=O)NCC(=O)N[C@@H](C)C(N)=O)[C@@H](C)CC` [AP302, A--F--G--G--R--I^ --D--R--I--G--A--NH2] (H-AFGGR[dI]DRIGA-NH2), with 18.9 nM. Under `CC[C@H](C)[C@H](NC(=O)[C@H](CCCNC(=N)N)NC(=O)CNC(=O)CNC(=O)Cc1ccc2ccccc2c1)C(=O)N[C@@H](CC(=O)O)C(=O)N[C@@H](CCCNC(=N)N)C(=O)NCC(C)C` [AP510] ({Acetyl(2-naphthyl)}-GGRIDR-NHiBu) stands 116.0 nM.

Take `CC[C@H](C)[C@H](NC(=O)[C@H](CCCNC(=N)N)NC(=O)[C@H](CC(=O)O)NC(=O)[C@@H](NC(=O)[C@H](CCCNC(=N)N)NC(=O)CNC(=O)CCCc1c[nH]c2ccccc12)[C@@H](C)CC)C(=O)NCC(=O)N[C@@H](C)C(N)=O` [AP597, (3-IB)--G--R--I--D--R--I--G--A--NH2] ({Butyryl(4-indol-3-yl)}-GRIDRIGA-NH2): the “Ki(app)” value is 9.3 nM.

For “FGGRIDRIGAA-NH2 [AP104, F--G--G--R--I--D--R--I--G--A--A--NH2]”, the “Ki(app)” value was found to be 2.50 nM. In the case of `CC[C@H](C)[C@H](NC(=O)[C@H](CCCNC(=N)N)NC(=O)[C@H](CC(=O)O)NC(=O)[C@@H](NC(=O)[C@H](CCCNC(=N)N)NC(=O)CCCNC(=O)COc1ccc2ccccc2c1)[C@@H](C)CC)C(=O)NCC(=O)N[C@@H](C)C(N)=O` [AP576, (2-NOA)--NH(CH2)3 CO--R--I--D--R--I--G--A--NH2] ({Acetyl(2-naphthyloxy)-GABA}-RIDRIGA-NH2), the “Ki(app)” value was 16.0 nM. Regarding `CC[C@H](C)[C@H](NC(=O)[C@H](CCCNC(=N)N)NC(=O)[C@H](CC(=O)O)NC(=O)[C@@H](NC(=O)[C@H](CCCNC(=N)N)NC(=O)Cc1ccc(NC(=O)C(Cl)c2ccccc2)cc1)[C@@H](C)CC)C(N)=O` (stereo partly drawn) [AP817] (X9-[X1]RIDRI-NH2), the “Ki(app)” value was 21.1 nM. Then `CC[C@H](C)CNC(=O)[C@H](CCCNC(=N)N)NC(=O)[C@H](CC(=O)O)NC(=O)[C@@H](NC[C@H](CCCCN)NC(=O)Cc1ccc(NC(=O)c2ccc3ccccc3c2)cc1)[C@@H](C)CC` [AP814], with 33.0 nM.
